Assays:
Format in all cases: cell-based
APJ–GRK2 interaction = assay: BRET recruitment of GRK2 to APJ; conditions: for log (τ/KA) / Δlog (τ/KA): APJ-GRK2; for log (τ/KA): Black–Leff operational model; for Δlog (τ/KA): relative to Apelin-13; for Bias factor / Log (Bias): APJ-GRK2 over Ca2+, reference Apelin-13; for Log (Bias): footnote a = statistically insignificant
Experimental: (§1) To detect the potencies of different peptide ligands for APJ in living cells, real-time kinetic bioluminescence resonance energy transfer (BRET) assays were carried out as follows. HEK293 cells were grown to 80–90% confluence in 24-well plates and transiently transfected with various Rluc-, EYFP-, or Venus-tagged constructs ([Chen et al., 2014]; [Liu et al., 2016]). Approximately 36 h after transfection, the long-acting luciferase substrate EnduRen (E6481, Promega, Beijing Biotech Co., Ltd.) was added to each well at a final concentration of 60 μM and cells were incubated for 2 h at 37°C in a 5% CO2 incubator. BRET experiments were carried out using a Mithras LB941 plate reader (Berthold Technologies, Bad Wildbad, Germany) with three filters: a Rluc filter (400–475 nm), a Venus filter (515–575 nm) and an EGFP filter (500–550 nm) ([Liu et al., 2016]; [Ji et al., 2017]). The BRET ratio was calculated as the ratio of the emission at 535 ± 30 nm to that at 485 ± 20 nm. The results are expressed as the mBRET (mBRET = 1,000 × BRET ratio) ([Pfleger et al., 2006a]; [Pfleger et al., 2006b]). We use high glucose as a negative control group.
(§2) HEK293 cells were transiently co-transfected with the designated Rluc and GFP2 or Venus or EYFP-labeled constructs. Twenty-four hours after transfection, the cells were harvested in phenol red free medium containing 5% FCS in HEPES buffer and seeded in 96 well white microplate coated with poly-D-lysine. After 24 h, cells were washed twice in PBS and re-suspended in PBS containing 0.5 mM MgCl2 and 0.1% glucose. Coelenterazine h substrate was added at a final concentration of 5 μM in the total volume of 50 μL/well. Kinetic-response and dose-response curve of the recruitment of GRKs or β-arrestin 1 and β-arrestin 2 or AP2 to the APJ by six peptides measured by BRET. […] The BRET signals between receptor and GRKs/β-arrestin1 and 2/AP2 were recorded at 10 min (GRK2/5) or 15 min (β-arrestin1 and) or 30 min (AP2) after agonist stimulation. We use high glucose as a control group. BRET assays were performed as described previously ([Xue et al., 2018]). […] This signal is defined as the ligand induced BRET ratio.
(§3) The concentration-response data for the ligands in various assays were analyzed to determine the biases of the ligands for G protein dependent signaling or β-arrestin dependent signaling, according to a previously published method ([Kenakin et al., 2012]; [Hager et al., 2016]; [Hothersall et al., 2017]). Briefly, the concentration-response data for each ligand were fitted to the Black–Leff operation model to obtain the values of τ and K A, using the following equation: Response=[A]^nτ^nEm/[A]^nτ^n+([A]KA)^n where [A] is the concentration of the agonist, E m is the maximal response of the system, n is the transducer slope, and K A and τ describe the affinity and efficacy of the agonist, respectively. In the data fitting, the reparametrized form of the equation proposed by [Kenakin et al. (2012)] was used: Response=Em/1+exp{nln[1+exp(β1)/[A]]−nβ2} where β 1 and β 2 are the natural logarithm of K A and τ, respectively, and E m was set to 1. Thus, for each concentration-response curve, a non-linear regression was performed to fit the above equation to give β 1 and β 2 (as well as n). Log (τ/K A) values (“transduction coefficients”) for each ligand vs. each pathway were obtained. […] The ΔΔlog (τ/K A), or Log (Bias), which is the logarithm of the bias factor for a given pathway over a reference pathway (here, intracellular calcium release), was calculated for each ligand as Δlog (τ/K A)–Δlog (τ/K A)Calcium. The 95% confidence interval (CI) was expressed as the mean ± standard error; Log (Bias) values, whose 95% CI crosses 0, were considered statistically insignificant.
(§4) The data were analyzed using GraphPad Prism v5.0. All the data are presented as the mean ± SEM.

[1] = system: APJ–β-arrestin 1 interaction; assay: BRET recruitment of β-arrestin 1 to APJ; conditions: for log (τ/KA) / Δlog (τ/KA): APJ-β-arrestin1; for log (τ/KA): Black–Leff operational model; for Δlog (τ/KA): relative to Apelin-13; for Bias factor / Log (Bias): APJ-β-arrestin1 over Ca2+, reference Apelin-13
Experimental: as §1, §2, §3, §4

[2] = system: β-arrestin 2–AP2 interaction induced by APJ; assay: BRET interaction of β-arrestin 2 and β2-adaptin (AP2) induced by APJ; conditions: for log (τ/KA) / Δlog (τ/KA): APJ-β-arrestin2-AP2; for log (τ/KA): Black–Leff operational model; for Δlog (τ/KA): relative to Apelin-13; for Bias factor / Log (Bias): APJ-β-arrestin2-AP2 over Ca2+, reference Apelin-13; for Log (Bias): footnote a = statistically insignificant
Experimental: as §1, §2, §3, §4

Row | Structure (SMILES) | log (τ/KA) (APJ–GRK2 interaction) | Δlog (τ/KA) (APJ–GRK2 interaction) | Bias factor (APJ–GRK2 interaction) | Log (Bias) (APJ–GRK2 interaction) | Log (Bias) (APJ–GRK2 interaction; listed as ELA-32) | bias over calcium release (APJ–GRK2 interaction; APJ–GRK2) | log (τ/KA) [1] | Δlog (τ/KA) [1] | Bias factor [1] | Log (Bias) [1] | Log (Bias) ([1]; listed as ELA-32) | bias over calcium release ([1]; APJ–β-arrestin 1) | APJ–β-arrestin 1 BRET signal (in words) ([1]; dose-response, 15 min) | log (τ/KA) [2] | Δlog (τ/KA) [2] | Bias factor [2] | Log (Bias) [2]
1 | CSCC[C@H](NC(=O)[C@@H](NC(=O)[C@H](CC(C)C)NC(=O)[C@H](CC(N)=O)NC(=O)[C@@H](NC(=O)[C@@H]1CCCN1C(=O)[C@H](CCCNC(=N)N)NC(=O)[C@@H](N)CCC(N)=O)C(C)C)[C@@H](C)O)C(=O)N[C@@H](CCCNC(=N)N)C(=O)N[C@@H](CCCNC(=N)N)C(=O)N[C@@H](CCCCN)C(=O)N[C@@H](CC(C)C)C(=O)N[C@@H](CCCNC(=N)N)C(=O)N[C@@H](CCCCN)C(=O)N[C@@H](Cc1c[nH]cn1)C(=O)N[C@@H](CC(N)=O)C(=O)N[C@H]1CSSC[C@@H](C(=O)N[C@@H](CCSC)C(=O)N2CCC[C@H]2C(=O)N[C@@H](CC(C)C)C(=O)N[C@@H](Cc2c[nH]cn2)C(=O)N[C@@H](CO)C(=O)N[C@@H](CCCNC(=N)N)C(=O)N[C@H](C(=O)N2CCC[C@H]2C(=O)N[C@@H](Cc2ccccc2)C(=O)N2CCC[C@H]2C(=O)O)C(C)C)NC(=O)[C@H](CCCNC(=N)N)NC(=O)[C@H](CCCNC(=N)N)NC(=O)[C@H](CCC(N)=O)NC(=O)[C@H](CC(C)C)NC1=O [Elabela-32] | −0.8 ± 0.2 | 1.3 ± 0.3 | 1,604.0 | 3.2 | 3.2 ± 0.4 | > 1,500 fold | −1.0 ± 0.1 | 1.4 ± 0.1 | 1978.4 | 3.3 | 3.3 ± 0.2 | > 1,500 fold | significantly higher than those induced by the other peptide ligands | −2.0 ± 0.4 | −1.8 ± 0.5 | 1.1 | 0.0 ± 0.6 ^a
2 | CSCC[C@H](NC(=O)[C@@H]1CSSC[C@H](NC(=O)[C@H](CC(N)=O)NC(=O)[C@H](Cc2c[nH]cn2)NC(=O)[C@H](CCCCN)NC(=O)[C@H](CCCNC(=N)N)NC(=O)[C@@H](N)CC(C)C)C(=O)N[C@@H](CC(C)C)C(=O)N[C@@H](CCC(N)=O)C(=O)N[C@@H](CCCNC(=N)N)C(=O)N[C@@H](CCCNC(=N)N)C(=O)N1)C(=O)N1CCC[C@H]1C(=O)N[C@@H](CC(C)C)C(=O)N[C@@H](Cc1c[nH]cn1)C(=O)N[C@@H](CO)C(=O)N[C@@H](CCCNC(=N)N)C(=O)N[C@H](C(=O)N1CCC[C@H]1C(=O)N[C@@H](Cc1ccccc1)C(=O)N1CCC[C@H]1C(=O)O)C(C)C [Elabela-21] | −1.5 ± 0.2 | 0.6 ± 0.3 | 169.0 | 2.2 ± 0.4 |  |  | −1.9 ± 0.1 | 0.6 ± 0.1 | 146.2 | 2.2 ± 0.2 |  |  |  | −2.1 ± 0.4 | −1.9 ± 0.5 | 0.5 | −0.3 ± 0.6 ^a

From paper PMC7970304, “The Effects of Apelin and Elabela Ligands on Apelin Receptor Distinct Signaling Profiles” (Frontiers in Pharmacology, 2021)
